Results from BindingDB's records for doi:10.1021/jm401798r (University of Michigan, 2014).

Experiments:
D(2) dopamine receptor = D(2) dopamine receptor (Homo sapiens, UniProt P14416); test: Displacement of [3H]N-methylspiperone from human dopamine D2 receptor expressed in HEK293 cells after 1 hr by liquid scintillation counting analysis
D(3) dopamine receptor [1] = target: D(3) dopamine receptor (Homo sapiens, UniProt P35462); test: Displacement of [3H]N-methylspiperone from human dopamine D3 receptor expressed in HEK293 cells after 1 hr by liquid scintillation counting analysis
D(3) dopamine receptor [2] = target: D(3) dopamine receptor (Rattus norvegicus, UniProt P19020); test: Displacement of [3H]R-(+)-7-OHDPAT from dopamine D3 receptor in Sprague-Dawley rat ventral striatum after 90 mins
Chain of D(3) dopamine receptor (Rattus norvegicus, UniProt P19020) (P19020 whole entry): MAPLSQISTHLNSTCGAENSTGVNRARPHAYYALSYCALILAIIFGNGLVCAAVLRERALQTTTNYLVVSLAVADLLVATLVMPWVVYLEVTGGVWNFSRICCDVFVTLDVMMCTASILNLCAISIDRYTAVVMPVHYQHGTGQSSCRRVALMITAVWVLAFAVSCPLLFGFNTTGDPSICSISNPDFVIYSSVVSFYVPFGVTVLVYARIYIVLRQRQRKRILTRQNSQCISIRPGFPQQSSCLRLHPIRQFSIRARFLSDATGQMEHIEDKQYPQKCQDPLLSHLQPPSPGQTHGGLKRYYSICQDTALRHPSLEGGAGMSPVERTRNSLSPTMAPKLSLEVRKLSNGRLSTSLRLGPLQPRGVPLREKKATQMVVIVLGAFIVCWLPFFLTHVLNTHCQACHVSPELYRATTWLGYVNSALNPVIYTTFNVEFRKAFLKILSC

Chain of D(3) dopamine receptor (Homo sapiens, UniProt P35462) (P35462 as listed by the source): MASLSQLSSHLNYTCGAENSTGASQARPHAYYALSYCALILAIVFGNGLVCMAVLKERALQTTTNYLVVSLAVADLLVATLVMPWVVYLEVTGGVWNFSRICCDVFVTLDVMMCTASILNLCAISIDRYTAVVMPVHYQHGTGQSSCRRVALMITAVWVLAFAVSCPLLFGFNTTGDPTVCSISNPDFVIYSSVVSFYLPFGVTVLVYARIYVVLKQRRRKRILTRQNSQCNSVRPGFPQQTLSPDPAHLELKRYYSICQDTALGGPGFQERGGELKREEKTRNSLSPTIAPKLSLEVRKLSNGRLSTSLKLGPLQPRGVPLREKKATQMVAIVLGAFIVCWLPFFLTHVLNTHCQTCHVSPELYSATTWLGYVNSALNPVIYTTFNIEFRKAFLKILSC
Chain of D(2) dopamine receptor (P14416 whole entry): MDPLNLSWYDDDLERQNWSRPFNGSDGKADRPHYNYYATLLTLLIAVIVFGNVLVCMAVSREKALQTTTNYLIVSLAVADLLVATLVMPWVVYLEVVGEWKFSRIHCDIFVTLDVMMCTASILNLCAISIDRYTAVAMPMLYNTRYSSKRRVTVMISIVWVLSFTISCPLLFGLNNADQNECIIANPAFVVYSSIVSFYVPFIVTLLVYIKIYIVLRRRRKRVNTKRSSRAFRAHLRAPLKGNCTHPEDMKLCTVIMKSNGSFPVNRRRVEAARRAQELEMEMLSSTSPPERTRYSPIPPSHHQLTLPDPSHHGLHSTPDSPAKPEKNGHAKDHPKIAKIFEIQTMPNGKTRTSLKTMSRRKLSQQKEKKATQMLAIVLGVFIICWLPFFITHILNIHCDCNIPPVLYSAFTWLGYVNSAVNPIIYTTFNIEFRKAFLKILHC

SMILES | Ki (D(2) dopamine receptor) [nM] | Ki (D(3) dopamine receptor [1]) [nM] | Ki (D(3) dopamine receptor [2]) [nM]
CCCN(CC[C@]1(O)C[C@@H](NC(=O)c2ccc3ccccc3c2)C1)[C@H]1C[C@@H]1c1cccc(Cl)c1 | 1220 | 38 | 28
CCCN(CC[C@]1(O)C[C@@H](NC(=O)c2ccc3ccccc3c2)C1)[C@H]1C[C@@H]1c1ccccc1Cl | 923 | 22 | 19
CCCN(CC[C@]1(O)C[C@@H](NC(=O)c2ccc3ccccc3c2)C1)C1CC1c1ccc(Cl)cc1 (some centres undefined) | 667 | 2.6 | 4.6
